Laboratory results as given in patent US11021521B2, “Pore-modified gram-negative bacteria and uses thereof” (priority 2015, dated 2021).
≈ marks a conversion by molar mass, not a printed value. Where “and” joins values, the source holds several entries; their conditions need not be identical. Equal entries are not always repeated.

How the values were obtained:
[1] = test system: P. aeruginosa PAO1-LAC (wild type, empty cassette); experiment: microbe, parasite or virus in culture; type: cell-based; details: at least three independent measurements
[2] = test system: P. aeruginosa PAO1-LAC-EcPore (hyperporinated); experiment: microbe, parasite or virus in culture; type: cell-based
[3] = test system: P. aeruginosa PaΔ3-LAC (efflux-deficient); experiment: microbe, parasite or virus in culture; type: cell-based; details: at least three independent measurements
[4] = test system: P. aeruginosa PaΔ3-LAC-EcPore (efflux-deficient, hyperporinated); experiment: microbe, parasite or virus in culture; type: cell-based
[5] = test system: B. thailandensis Bt-RHA (wild type, empty cassette); experiment: microbe, parasite or virus in culture; type: cell-based
[6] = test system: B. thailandensis Bt-RHA-BtPore (hyperporinated); experiment: microbe, parasite or virus in culture; type: cell-based
[7] = test system: B. thailandensis BtΔ2-RHA (efflux-deficient); experiment: microbe, parasite or virus in culture; type: cell-based
[8] = test system: B. cepacia Bc-RHA-BtPore (hyperporinated); experiment: microbe, parasite or virus in culture; type: cell-based; details: Bc: Bc-RHA-BtPore vs parent
[9] = test system: A. baumannii Ab-ARA (wild type, empty cassette); experiment: microbe, parasite or virus in culture; type: cell-based; details: at least three independent measurements
[10] = test system: A. baumannii Ab-ARA-EcPore (hyperporinated); experiment: microbe, parasite or virus in culture; type: cell-based
[11] = test system: A. baumannii AbΔ3-ARA (efflux-deficient); experiment: microbe, parasite or virus in culture; type: cell-based
[12] = test system: A. baumannii AbΔ3-ARA-EcPore (efflux-deficient, hyperporinated); experiment: microbe, parasite or virus in culture; type: cell-based; details: for MIC: AbΔ3-ARA-EcPore
[13] = test system: B. thailandensis cells (Bt-RHA and derivatives)
[14] = test system: A. baumannii cells (Ab-ARA and derivatives); experiment: Fluorescent probe uptake assay, A. baumannii strains; details: AbΔ3-ARA vs Ab-ARA, fluorescence
[15] = test system: P. aeruginosa cells (PAO1-LAC and derivatives); experiment: Fluorescent probe uptake assay, P. aeruginosa strains; details: PΔ3-LAC vs PAO1-LAC, fluorescence

In the case of `CCOc1ccc(-c2nc3ccc(-c4nc5ccc(N6CCN(C)CC6)cc5[nH]4)cc3[nH]2)cc1` [HT, Hoechst 33342], the MIC [1] is reported as over 64 µg/mL, the MIC ([2]; PAO1-LAC-EcPore, at least three independent measurements) is reported as 64 µg/mL (≈ 141 µM) and the “Fold decrease of MIC (potentiation) by hyperporination” value (from here on “Fold decrease of MIC (potentiation)”) ([2]; Pae: PAO1-LAC-EcPore vs parent) is reported as 4 to 8 fold. For the same molecule, the MIC [3] was 16 µg/mL (≈ 35.4 µM), the MIC ([4]; PaΔ3-LAC-EcPore, at least three independent measurements) was 2 µg/mL and the MIC ([4]; PΔ3-LAC-EcPore) was 2.0 µM. The MIC [5] was over 64 µM, the MIC [6] was over 64 µM and the MIC [7] was 1 µM (≈ 0.453 µg/mL). For the same molecule, the “Fold decrease of MIC (potentiation)” value [8] was over 4 fold, the MIC [9] was 25 µg/mL (≈ 55.2 µM) and the MIC ([10]; Ab-ARA-EcPore, at least three independent measurements) was 3.125 µg/mL (≈ 6.91 µM). For the same molecule, the “Fold decrease of MIC (potentiation)” value ([10]; Abau: Ab-ARA-EcPore vs parent) was 4 to 8 fold and 8 fold, the “Fold reduction of MIC by inactivation of efflux” value ([11]; Abau: AbΔ3-ARA vs Ab-ARA) was 32 fold and the MIC ([11]; AbΔ3-ARA, at least three independent measurements) was 0.78 µg/mL (≈ 1.72 µM). For the same molecule, the MIC [12] was 0.025 to 0.05 µM, the “Fold change of MIC by efflux inactivation plus hyperporination” value ([12]; AbΔ3-ARA-EcPore vs Ab-ARA) was 1000 fold and the MIC ([12]; at least three independent measurements) was 0.025 µg/mL. The “Change of intracellular accumulation of probe by inactivation of efflux” value (from here on “Change of intracellular accumulation … of efflux”) [13] was “up to 2 fold”, the “Change of intracellular accumulation … of efflux” value [14] was “up to 2 fold” and the “Change of intracellular accumulation … of efflux” value [15] was “lower than those in the parent PAO1-LAC”.
